In publication PMC12340957, “Interactions between Lipopolysaccharide and Peptide Bacteriocin BacSp222 Influence Their Biological Activities” (ACS Infectious Diseases, 2025):
Ends that are not written are not given here. * marks the point of attachment. For = O=C*

B1: BacSp222 bacteriocin (peptide)
chain: For-MAGLLRFLLSKGRALYNWAKSHVGKVWEWLKSGATYEQIKEWIENALGWR
notes: molecular mass 5.922 kDa; also called peptide BacSp222
B2: colicin N: protein bacteriocin whose receptor-binding domain binds to LPS (protein, UniProt P08083 1-387, looked up)
Colicin-N: MGSNGADNAHNNAFGGGKNPGIGNTSGAGSNGSASSNRGNSNGWSWSNKPHKNDGFHSDGSYHITFHGDNNSKPKPGGNSGNRGNNGDGASAKVGEITITPDNSKPGRYISSNPEYSLLAKLIDAESIKGTEVYTFHTRKGQYVKVTVPDSNIDKMRVDYVNWKGPKYNNKLVKRFVSQFLLFRKEEKEKNEKEALLKASELVSGMGDKLGEYLGVKYKNVAKEVANDIKNFHGRNIRSYNEAMASLNKVLANPKMKVNKSDKDAIVNAWKQVNAKDMANKIGNLGKAFKVADLAIKVEKIREKSIEGYNTGNWGPLLLEVESWIIGGVVAGVAISLFGAVLSFLPISGLAVTALGVIGIMTISYLSSFIDANRVSNINNIISSVIR

Legend:
[1] = literature statement; ref number not given; cited from earlier work
Text: Regarding factors produced by bacteria, the canonical example of molecules interacting with LPS are polymyxins. […] Polymyxins are effective antibacterial drugs that interact with LPS in the outer and inner membranes of the cell wall, ultimately causing a lethal effect. […] Colicins, a family of protein bacteriocins produced by , typically must cross the bacterial outer membrane to display bactericidal activity. Most colicins use porins and high-affinity receptors to cross the outer membrane and kill the target. However, for colicin N, there is no such high-affinity receptor, and this bacteriocin targets LPS instead. The receptor-binding domain of ColN binds to LPS near the membrane surface, and this interaction is required for its bactericidal activity. || Nisin, a peptide lantibiotic produced by , is another example of a bacteriocin that could utilize LPS as a receptor. […] The interaction described above leads to membrane disruption. The level of membrane disruption is related to the origin of the bacteria and the type of LPS as its rough type is more susceptible to nisin.

[2] = tested on: TLR4; details: literature statement; ref number not given; cited from earlier work
Text: Proteins and peptides capable of recognizing and binding LPS as well as altering its biological activity are present in both higher organisms and bacteria. In higher organisms, these polypeptides are most often involved in the immune response. One of the best-known examples is LPS-binding protein (LBP). It is an acute-phase plasma protein of mammals that forms a complex with LPS, and this complex then binds to CD14 (cluster of differentiation 14). This event initiates a signaling pathway through TLR4/MD-2 and triggers the activation of immune response. , In the absence of TLR4, MD-2 can also i ... || Regarding factors produced by bacteria, the canonical example of molecules interacting with LPS are polymyxins. […] Polymyxins are effective antibacterial drugs that interact with LPS in the outer and inner membranes of the cell wall, ultimately causing a lethal effect.

[3] = biological target: the molecule itself; assay: dynamic light scattering; BacSp222 alone at 5, 50 and 500 μg/mL in PBS without Ca2+ and Mg2+, incubated 15 min at 37 °C, measured at 37 °C (Prometheus Panta); performed once

Row | Molecule | interaction with LPS [1] | inhibition of LPS-induced TLR4 activation [2] | binding result [3]
1 | Nisin | forms a molecular complex in model membranes and bacterial outer membrane extracts | – | –
2 | polymyxins [reference compound] | high affinity to LPS | effectively block the biological effects of LPS, including TLR4 activation | –
3 | B1 | – | – | binds
4 | B2 | targets LPS | – | –
